Results published in patent US4500525A, “Pharmacologically active pyrazolo/4,3-c/pyridines” (Gruppo Lepetit S.p.A., priority 1982, dated 1985).
Structures can show the parent of a compound that is named as a salt.

Target: α1 adrenoceptor
Assay: displacement of ^3 H-prazosin specifically bound in rat brain homogenate (radioligand binding)
Conditions: ^3 H Prazosin binding, Ki calculated from IC50, read-out: K1 (nM) ^3 H Prazosin
Description: The compounds of the invention were tested […] for their ability to compete with labelled ligands of α1, α2 -adrenergic,and dopaminergic receptors. Said tests were made essentially following:
(b) the method described by P. Greengrass et al., European Journal of Pharmacology, Vol. 55, pp. 323-326, (1979), which uses the specific displacement of ^3 H-prazosin specifically bound in rat brain homogenate, for the identification of substances interacting with the so called "α1 "adrenoceptor;
The above mentioned methods are radioligand binding assays and are based on the knowledge that many natural or synthetic physiologically active substances such as neurotransmitters, hormones, and others, specifically link to cellular receptors, generally of proteic nature. They are generally obtained from a tissue or organ of a suitable test-animal after isolation and homogenization of said tissue or organ.
The homogenate is twice centrifugated to separate and partially purify the receptorial fraction (synaptosomes).
The labelled substances employed are known to specifically bind their receptors, so the drug-receptor dissociation constants obtained for each test compound under standard conditions are a measure of their actual binding affinities. The validation of the above methods in predicting a possible pharmacological activity was carried out comparing the in vitro binding constants of a number of […] agonist or antagonist of the adrenergic or dopaminergic system with their in vivo activities. The α1 -adrenergic activity is essentially correlated with a peripheral vasodilatation. The α2 -adrenergic activity is essentially correlated with a hypotensive action of central origin, and the dopaminergic activity is correlated with a neuroleptic action. IC50 values, defined as the drug concentration that cause 50% inhibition of the specific ^3 H ligant binding, are observed by incubating from 5 to 7 different dilutions of the tested compound in duplicate or triplicate. Ki, inhibition constant, values are calculated from the following formula: [formula] wherein IC50 is defined as above, C is the concentration of the ^3 H ligand, and KD is the dissociation constant of the ^3 H ligand-receptor complex.

Compared with `Fc1ccc(-c2nn(CCc3ccccc3)c3c2CNCC3)cc1` [Example 110, 3-(4-fluorophenyl)-1-(2-phenylethyl)-4,5,6,7-tetrahydro-1H-pyrazolo/4,3-c/pyridine, methanesulfonate], `Fc1ccc(-c2nn(CCCc3ccccc3)c3c2CNCC3)cc1` [Example 111, 3-(4-fluorophenyl)-1-(3-phenylpropyl)-4,5,6,7-tetrahydro-1H-pyrazolo/4,3-c/pyridine, methanesulfonate] is 3.1-fold lower in Ki: 40.3 nM for the first, 12.9 nM for the second. The second binds more tightly here.

`Fc1ccc(-c2n[nH]c3c2CNCC3)cc1` [Example 19, 3-(4-fluorophenyl)-4,5,6,7-tetrahydro-1H-pyrazolo/4,3-c/pyridine] and `Cc1ccc(-c2n[nH]c3c2CNCC3)cc1` [Example 32, 3-(4-methylphenyl)-4,5,6,7-tetrahydro-1H-pyrazolo/4,3-c/pyridine, dihydrochloride] are within 1.5-fold of each other in Ki: 69.2 nM for the first, 92.2 nM for the second.

Going from `CCCCn1nc(-c2ccc(F)cc2)c2c1CCNC2` [Example 113, 3-(4-fluorophenyl)-1-n.butyl-4,5,6,7-tetrahydro-1H-pyrazolo/4,3-c/pyridine, methanesulfonate] to `CCCCCn1nc(-c2ccc(F)cc2)c2c1CCNC2` [Example 122, 3-(4-fluorophenyl)-4,5,6,7-tetrahydro-1-n.pentyl-1H-pyrazolo/4,3-c/pyridine, methanesulfonate], the Ki falls from 17.3 nM to 8.7 nM (2-fold).

Compared with `Cc1ccc(-c2nn(Cc3ccccc3)c3c2CN(C)CC3)cc1` [Example 147, 4,5,6,7-tetrahydro-5-methyl-3-(4-methylphenyl)-1-phenylmethyl-1H-pyrazolo/4,3-c/pyridine, methanesulfonate], `CN1CCc2c(c(-c3ccc(Cl)cc3)nn2Cc2ccccc2)C1` [Example 146, 3-(4-chlorophenyl)-4,5,6,7-tetrahydro-5-methyl-1-phenylmethyl-1H-pyrazolo/4,3-c/pyridine, methanesulfonate] is 1.5-fold higher in Ki: 20.1 nM for the first, 30.9 nM for the second.

`Cn1nc(-c2ccccc2)c2c1CCNC2` [Example 96, 1-methyl-3-phenyl-4,5,6,7-tetrahydro-1H-pyrazolo/4,3-c/pyridine, methanesu lfonate] and `c1ccc(Cn2nc(-c3ccccc3)c3c2CCNC3)cc1` [Example 117, 4,5,6,7-tetrahydro-3-phenyl-1-phenylmethyl-1H-pyrazolo/4,3-c/pyridine, hydrochloride] are within 1.5-fold of each other in Ki: 52 nM for the first, 38.6 nM for the second.

`CC(c1ccccc1)n1nc(-c2ccc(F)cc2)c2c1CCN(C)C2` (centres unmarked) [Example 144, 3-(4-fluorophenyl)-4,5,6,7-tetrahydro-5-methyl-1-(1-phenylethyl)-1H-pyrazolo/4,3-c/pyridine, hydrochloride] and `CC(c1ccccc1)n1nc(-c2ccc(F)cc2)c2c1CCNC2` (centres unmarked) [Example 116, 3-(4-fluorophenyl)-4,5,6,7-tetrahydro-1-(1-phenylethyl)-1H-pyrazolo/4,3-c/pyridine, methanesulfonate] are within 1.5-fold of each other in Ki: 8.14 nM for the first, 7.24 nM for the second.

`CC(C)n1nc(-c2ccc(F)cc2)c2c1CCNC2` [Example 95, 3-(4-fluorophenyl)-1-(2-methylethyl)-4,5,6,7-tetrahydro-1H-pyrazolo/4,3-c/pyridine, methanesulfonate] and `CCCn1nc(-c2ccc(F)cc2)c2c1CCNC2` [Example 112, 3-(4-fluorophenyl)-1-n.propyl-4,5,6,7-tetrahydro-1H-pyrazolo/4,3-c/pyridine, methanesulfonate] are within 1.5-fold of each other in Ki: 32.2 nM for the first, 24.2 nM for the second.

Compared with `COc1ccc(Cn2nc(-c3ccc(F)cc3)c3c2CCNC3)cc1` [Example 105, 3-(4-fluorophenyl)-1-(4-methoxyphenylmethyl)-4,5,6,7-tetrahydro-1H-pyrazolo/4,3-c/pyridine, hydrochloride], `Fc1ccc(-c2nn(Cc3ccc(Cl)cc3)c3c2CNCC3)cc1` [Example 103, 1-(4-chlorophenylmethyl)-3-(4-fluorophenyl)-4,5,6,7-tetrahydro-1H-pyrazolo/4,3-c/pyridine, hydrochloride] is 1.8-fold higher in Ki: 6.23 nM for the first, 11.1 nM for the second. The first binds more tightly here.

`CCCCCn1nc(-c2ccc(F)cc2)c2c1CCN(C)C2` [Example 150, 3-(4-fluorophenyl))-4,5,6,7-tetrahydro-5-methyl-1-n.pentyl-1H-pyrazolo/4,3-c/pyridine, methanesulfonate] and `CCCCCCn1nc(-c2ccc(F)cc2)c2c1CCN(C)C2` [Example 151, 3-(4-fluorophenyl)-4,5,6,7-tetrahydro-1-n.hexyl-5-methyl-1H-pyrazolo/4,3-c/pyridine, methanesulfonate] are within 1.5-fold of each other in Ki: 18.3 nM for the first, 15.2 nM for the second.

Going from `Fc1ccc(-c2nn(Cc3ccccc3)c3c2CN(C2CCCC2)CC3)cc1` [Example 163, 5-cyclopentyl-3-(4-fluorophenyl)-1-phenylmethyl-4,5,6,7-tetrahydro-1H-pyrazolo/4,3-c/pyridine, hydrochloride] to `CN1CCc2c(c(-c3ccc(F)cc3)nn2Cc2ccccc2)C1` [Example 128, 3-(4-fluorophenyl)-5-methyl-1-phenylmethyl-4,5,6,7-tetrahydro-1H-pyrazolo/4,3-c/pyridine, methanesulfonate], the Ki falls from 42.4 nM to 21.2 nM (2-fold).

Going from `CN1CCc2c(c(-c3ccc(F)cc3)nn2Cc2ccccc2Cl)C1` [Example 142, 1-(2-chlorophenylmethyl)-3-(4-fluorophenyl)-5-methyl-4,5,6,7-tetrahydro-1H-pyrazolo/4,3-c/pyridine, methanesulfonate] to `Fc1ccc(-c2nn(Cc3ccccc3Cl)c3c2CNCC3)cc1` [Example 114, 1-(2-chlorophenylmethyl)-3-(4-fluorophenyl)-4,5,6,7-tetrahydro-1H-pyrazolo/4,3-c/pyridine, methanesulfonate], the Ki falls from 36.3 nM to 17.3 nM (2.1-fold). The second binds more tightly here.

`CN1CCc2c(c(-c3ccc(F)cc3)nn2Cc2ccc(Cl)c(Cl)c2)C1` [Example 136, 1-(3,4-dichlorophenylmethyl)-3-(4-fluorophenyl)-5-methyl-4,5,6,7-tetrahydro-1H-pyrazolo/4,3-c/pyridine] and `CN1CCc2c(c(-c3ccc(F)cc3)nn2Cc2ccc(Cl)cc2)C1` [Example 132, 1-(4-chlorophenylmethyl)-3-(4-fluorophenyl)-5-methyl-4,5,6,7-tetrahydro-1H-pyrazolo/4,3-c/pyridine, methanesulfonate] are within 1.5-fold of each other in Ki: 21.9 nM for the first, 20.8 nM for the second.

Compared with `CCCn1nc(-c2ccc(F)cc2)c2c1CCN(C)C2` [Example 140, 3-(4-fluorophenyl)-1-n.propyl-5-methyl-4,5,6,7-tetrahydro-1H-pyrazolo/4,3-c/pyridine, methanesulfonate], `CCCCn1nc(-c2ccc(F)cc2)c2c1CCN(C)C2` [Example 141, 3-(4-fluorophenyl)-1-n.butyl-5-methyl-4,5,6,7-tetrahydro-1H-pyrazolo/4,3-c/pyridine, methanesulfonate] is 2.2-fold lower in Ki: 73.5 nM for the first, 32.8 nM for the second.

Compared with `CN1CCc2c(c(-c3ccc(F)cc3)nn2CCc2ccccc2)C1` [Example 138, 3-(4-fluorophenyl)-1-(2-phenylethyl)-5-methyl-4,5,6,7-tetrahydro-1H-pyrazolo/4,3-c/pyridine], `CN1CCc2c(c(-c3ccc(F)cc3)nn2CCCc2ccccc2)C1` [Example 139, 3-(4-fluorophenyl)-1-(3-phenylpropyl)-5-methyl-4,5,6,7-tetrahydro-1H-pyrazolo/4,3-c/pyridine, hydrochloride] is 2-fold lower in Ki: 40.3 nM for the first, 20.6 nM for the second.

Compared with `CC(C)N1CCc2c(c(-c3ccc(F)cc3)nn2Cc2ccccc2)C1` [Example 162, 3-(4-fluorophenyl)-5-(2-methylethyl)-1-phenylmethyl-4,5,6,7-tetrahydro-1H-pyrazolo/4,3-c/pyridine], `Cc1ccc(-c2nn(Cc3ccccc3)c3c2CNCC3)cc1` [Example 119, 4,5,6,7-tetrahydro-3-(4-methylphenyl)-1-phenylmethyl-1H-pyrazolo/4,3-c/pyridine, hydrochloride] is 17-fold lower in Ki: 97.6 nM for the first, 5.86 nM for the second. The second binds more tightly here.

Going from `CN1CCc2c(c(-c3ccccc3)nn2Cc2ccccc2)C1` [Example 145, 4,5,6,7-tetrahydro-5-methyl-3-phenyl-1-phenylmethyl-1H-pyrazolo/4,3-c/pyridine, methanesulfonate] to `Clc1ccc(-c2nn(Cc3ccccc3)c3c2CNCC3)cc1` [Example 118, 3-(4-chlorophenyl)-4,5,6,7-tetrahydro-1-phenylmethyl)-1H-pyrazolo/4,3-c/pyridine, hydrochloride], the Ki falls from 49.4 nM to 14.5 nM (3.4-fold). The second binds more tightly here.

Going from `Fc1ccc(-c2nn(Cc3ccc(Cl)c(Cl)c3)c3c2CNCC3)cc1` [Example 108, 1-(3,4-dichlorophenylmethyl)-3-(4-fluorophenyl)-4,5,6,7-tetrahydro-1H-pyrazolo/4,3-c/pyridine, hydrochloride] to `COc1ccc(Cn2nc(-c3ccc(F)cc3)c3c2CCN(C)C3)cc1` [Example 133, 3-(4-fluorophenyl)-1-(4-methoxyphenylmethyl)-5-methyl-4,5,6,7-tetrahydro-1H-pyrazolo/4,3-c/pyridine, hydrochloride], the Ki rises from 7.48 nM to 12.4 nM (1.7-fold). The first binds more tightly here.

With `CCCCCCn1nc(-c2ccc(F)cc2)c2c1CCNC2` [Example 123, 3-(4-fluorophenyl)-4,5,6,7-tetrahydro-1-n.hexyl-1H-pyrazolo/4,3-c/pyridine, methanesulfonate] the Ki was 13 nM.
